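In this assay, cells in 96-well plates receive the compound at five concentrations for 48 hours. Endpoints are linearly interpolated between the surrounding concentrations. GI50 = concentration required for 50% inhibition of growth.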 Calls of active or inactive are those of the source. No stated cut-off is given here; in the data, active = GI50 up to about 1.1 µM and inactive = higher.
Columns and labels:
Assay in all cases: NCI tumour cell line growth inhibition, 48 h
[1] = system: M14
[2] = system: SN12C
[3] = system: SK-OV-3
[4] = system: K562
[5] = system: MDA-N
[6] = system: MCF7
[7] = system: OVCAR-4
[8] = system: NCI-H522
[9] = system: A549
[10] = system: U-251
[11] = system: KM12
[12] = system: HCC 2998
[13] = system: TK-10
[14] = system: SNB-19
[15] = system: LOX IMVI
[16] = system: SK-MEL-28
[17] = system: SF-268
[18] = system: SR
[19] = system: MDA-MB-435
[20] = system: SF-295
[21] = system: HL-60
[22] = system: SF-539
[23] = system: CCRF-CEM
[24] = system: SK-MEL-5
[25] = system: MOLT-4
[26] = system: DU-145
[27] = system: BT-549
[28] = system: A498
[29] = system: SNB-75
[30] = system: SK-MEL-2
[31] = system: CAKI-1
[32] = system: COLO 205
[33] = system: RPMI-8226
[34] = system: HCT-15
[35] = system: 786-0
[36] = system: OVCAR-5
[37] = system: HOP-62
[38] = system: HCT-116
[39] = system: NCI/ADR-RES
[40] = system: ACHN
[41] = system: RXF 393
[42] = system: T47D
[43] = system: EKVX
[44] = system: UO-31
[45] = system: Malme-3M
[46] = system: HT-29
[47] = system: NCI-H23
[48] = system: OVCAR-8
[49] = system: UACC-62
[50] = system: PC-3
[51] = system: Hs-578T
[52] = system: SW-620
[53] = system: MDA-MB-231
[54] = system: UACC-257
[55] = system: NCI-H226
[56] = system: NCI-H460
[57] = system: OVCAR-3
[58] = system: HOP-92
[59] = system: IGROV-1

O=C(c1ccc(Cl)cc1)N(Cc1cccnc1)C(=S)N(Cc1cccnc1)C(=O)c1ccc(Cl)cc1
GI50 [1]: 22.7 µM (inactive)
GI50 [2]: 18.6 µM (inactive)
GI50 [3]: > 100 µM (inactive)
GI50 [4]: 22.9 µM (inactive)
GI50 [5]: 22.2 µM (inactive)
GI50 [6]: 29.7 µM (inactive)
GI50 [7]: 23.6 µM (inactive)
GI50 [8]: 24.2 µM (inactive)
GI50 [9]: 99.5 µM (inactive)
GI50 [10]: 22.7 µM (inactive)
GI50 [11]: 35.4 µM (inactive)
GI50 [12]: 25.9 µM (inactive)
GI50 [13]: 53 µM (inactive)
GI50 [14]: 41.5 µM (inactive)
GI50 [15]: 22 µM (inactive)
GI50 [16]: 37.8 µM (inactive)
GI50 [17]: 28.3 µM (inactive)
GI50 [18]: 50.4 µM (inactive)
GI50 [19]: 40.2 µM (inactive)
GI50 [20]: 43.3 µM (inactive)
GI50 [21]: 33.2 µM (inactive)
GI50 [22]: 23 µM (inactive)
GI50 [23]: 50 µM (inactive)
GI50 [24]: 27.5 µM (inactive)
GI50 [25]: 16.1 µM (inactive)
GI50 [26]: 31.1 µM (inactive)
GI50 [27]: 23.7 µM (inactive)
GI50 [28]: 30.5 µM (inactive)
GI50 [29]: 37.1 µM (inactive)
GI50 [30]: 23 µM (inactive)
GI50 [31]: 42.4 µM (inactive)
GI50 [32]: 20.5 µM (inactive)
GI50 [33]: 13.2 µM (inactive)
GI50 [34]: 33.9 µM
GI50 [35]: 21.1 µM (inactive)
GI50 [36]: 36.7 µM (inactive)
GI50 [37]: 50.7 µM (inactive)
GI50 [38]: 27.1 µM (inactive)
GI50 [39]: 31.2 µM (inactive)
GI50 [40]: 36.1 µM (inactive)
GI50 [41]: 43.6 µM (inactive)
GI50 [42]: 57.4 µM (inactive)
GI50 [43]: 50.8 µM (inactive)
GI50 [44]: 34.2 µM (inactive)
GI50 [45]: 51.2 µM (inactive)
GI50 [46]: 26.1 µM (inactive)
GI50 [47]: 36.1 µM (inactive)
GI50 [48]: 29.6 µM (inactive)
GI50 [49]: 24.3 µM (inactive)
GI50 [50]: 30.3 µM (inactive)
GI50 [51]: 48.4 µM (inactive)
GI50 [52]: 40.5 µM (inactive)
GI50 [53]: 26.5 µM (inactive)
GI50 [54]: 33.6 µM (inactive)
GI50 [55]: 43.5 µM (inactive)
GI50 [56]: 44.2 µM (inactive)
GI50 [57]: 34 µM (inactive)
GI50 [58]: 34 µM (inactive)

N/N=c1\[nH]c2ccccc2o1
GI50 [1]: > 100 µM (inactive)
GI50 [2]: > 100 µM (inactive)
GI50 [4]: 89.7 µM (inactive)
GI50 [5]: > 100 µM (inactive)
GI50 [6]: 88.7 µM (inactive)
GI50 [7]: 46.5 µM (inactive)
GI50 [8]: 57.1 µM (inactive)
GI50 [9]: > 100 µM (inactive)
GI50 [10]: > 100 µM (inactive)
GI50 [11]: > 100 µM (inactive)
GI50 [12]: > 100 µM (inactive)
GI50 [13]: > 100 µM (inactive)
GI50 [14]: > 100 µM (inactive)
GI50 [15]: > 100 µM (inactive)
GI50 [16]: > 100 µM (inactive)
GI50 [17]: > 100 µM (inactive)
GI50 [18]: 52 µM (inactive)
GI50 [19]: > 100 µM (inactive)
GI50 [59]: > 100 µM (inactive)
GI50 [21]: 53.6 µM (inactive)
GI50 [22]: > 100 µM (inactive)
GI50 [23]: 31.7 µM (inactive)
GI50 [24]: > 100 µM (inactive)
GI50 [25]: 24.2 µM (inactive)
GI50 [26]: > 100 µM (inactive)
GI50 [27]: > 100 µM (inactive)
GI50 [28]: > 100 µM (inactive)
GI50 [29]: > 100 µM (inactive)
GI50 [30]: > 100 µM (inactive)
GI50 [31]: > 100 µM (inactive)
GI50 [32]: > 100 µM (inactive)
GI50 [33]: 67.6 µM (inactive)
GI50 [34]: 77.3 µM
GI50 [35]: 86.7 µM (inactive)
GI50 [36]: > 100 µM (inactive)
GI50 [38]: 80 µM (inactive)
GI50 [39]: 52.7 µM (inactive)
GI50 [40]: > 100 µM (inactive)
GI50 [41]: > 100 µM (inactive)
GI50 [42]: 30.1 µM (inactive)
GI50 [43]: > 100 µM (inactive)
GI50 [44]: 93.5 µM (inactive)
GI50 [45]: > 100 µM (inactive)
GI50 [46]: > 100 µM (inactive)
GI50 [47]: > 100 µM (inactive)
GI50 [48]: 64.6 µM (inactive)
GI50 [49]: > 100 µM (inactive)
GI50 [50]: > 100 µM (inactive)
GI50 [51]: > 100 µM (inactive)
GI50 [52]: > 100 µM (inactive)
GI50 [53]: > 100 µM (inactive)
GI50 [54]: > 100 µM (inactive)
GI50 [55]: > 100 µM (inactive)
GI50 [56]: > 100 µM (inactive)
GI50 [58]: > 100 µM (inactive)

Reference: ChEMBL document CHEMBL1201862, “PubChem BioAssay data set” (2004)
